The results in this text go back to PubChem BioAssay (NCI).

Some test systems named below: DLD-1 colon; SNB-78 CNS; DMS 273 small cell lung; RXF-631 renal; DMS 114 small cell lung; KM20L2 colon; LXFL 529 NSCLC; XF 498 CNS.
Assay in all cases: DTP human tumour cell line panel, 48 h

Structures are written as SMILES.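 Cultured in 96-well plates, cells were exposed to test compound for 48 hours across five concentrations. GI50 marks 50% less growth. TGI denotes the concentration required for complete inhibition of growth.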

As a reminder, the TGI is the concentration at which net growth stops. As to `Cc1ccc(C(O)(c2ccc(C)cc2)c2ccccn2)cc1`, the TGI in the test on DLD-1 colon, in the test with SNB-78 CNS, in the test on DMS 273 small cell lung, with RXF-631 renal, in the test on DMS 114 small cell lung and in the test on KM20L2 colon was > 100 µM each time.
For `Nc1c(-c2ccccc2[N+](=O)[O-])nc2ccccn12`, the TGI in the test on DLD-1 colon, in the test on DMS 273 small cell lung, in the test on LXFL 529 NSCLC, with DMS 114 small cell lung and in the test on KM20L2 colon was > 100 µM throughout.
Consider `CCCCOCc1cc(CN2CCN(C)CC2)c(O)c2ncccc12`, for which the TGI with XF 498 CNS is > 100 µM; in the test with DLD-1 colon, > 100 µM; with SNB-78 CNS, > 100 µM; in the test on DMS 273 small cell lung, 40.2 µM; in the test on LXFL 529 NSCLC it was > 100 µM; with RXF-631 renal, > 100 µM. Further, the TGI with DMS 114 small cell lung came out at 23.9 µM; with KM20L2 colon, 73.7 µM.
In general, GI50 refers to the concentration that inhibits growth by half. On to `C[CH2][Ge]([CH2]C)([CH2]C)[O]C(=O)CCC(=O)[O][Ge]([CH2]C)([CH2]C)[CH2]C`, for which the GI50 was > 100 µM in the test on XF 498 CNS; 38.7 µM with DLD-1 colon; 85.9 µM in the test on DMS 273 small cell lung; 42.5 µM with LXFL 529 NSCLC; 38.9 µM in the test on DMS 114 small cell lung; > 100 µM with KM20L2 colon. Moreover, the concentration for total growth inhibition (TGI) with XF 498 CNS, in the test with DLD-1 colon, in the test on DMS 273 small cell lung, with LXFL 529 NSCLC, in the test on DMS 114 small cell lung and with KM20L2 colon was > 100 µM in each case.
